This is an account of results in patent US6630161B1, “Adjuvant composition and methods for its use” (Ribi Immunochem Research, Inc., priority 1998, dated 2003).

A short description of this series: Histamine type response after intravenous administration of surfactants. In kind it is in vivo. Conditions: dogs.

As for `CCCCCCCC/C=C\CCCCCCCC(=O)OCCOCC(OCCO)C1OCC(OCCO)C1OCCO` (centres unmarked) [Tween 80], the “response when administered intravenously” value is recorded as “histamine type response”.
Take polysorbate 80: the “response when administered intravenously” value is listed as “histamine type response”.
